The test system of assay [1] is Candida albicans biofilms on the maturation phase. The experiment in a line: Anti-maturation test (XTT), compounds added after 2 h adherence. The class given is cell-based, Candida albicans ATCC 28367. The note with it: for IC50: Candida albicans, read-out: Anti-maturation activity MMIC50. On the procedure:
(§1) The anti-maturation and/or anti-biofilm activities of lichen compounds were assessed as previously described ([Millot et al., 2017]). Briefly, C. albicans (ATCC® 28367™) cultures were prepared at a final concentration of 1 × 10^7 cells/ml in yeast nitrogen base medium (Difco, Detroit, MI), supplemented with 50 mM glucose (Sigma, St Louis, MO) (YNB-Glc) from a preculture incubated overnight at 37°C without shaking.
(§2) A total of 200 µl of yeast culture was added to each well of untreated 96-well tissue culture plates. The plates were then incubated at 37°C for 2 h for the anti-maturation test and for 24 h for the anti-biofilm test. After aspiration of spent media and free-floating microorganisms, 250 μl per well of YNB-Glucose and 50 μl lichen compound samples obtained by serial twofold dilutions of each stock solution over the final range 200 to 0.097 μg/ml or 200 to 6.25 μg/ml were added to wells. Controls were also present: untreated yeasts (negative control) and yeasts treated with 2% DMSO. After 24 and/or 48 h of incubation at 37°C followed by aspiration of spent media and free-floating microorganisms, the wells were washed with phosphate-buffered saline (PBS) and observed under an inverted optical microscope (IX51® inverted microscope, Olympus). Biofilms were quantified using a metabolic assay based on the reduction of a tetrazolium salt (XTT) and absorbance measurements at 492 nm (microplate reader LP400; Sanofi Diagnostics Pasteur) ([Cocuaud, 2005]; [Dalleau et al., 2008]). The percent inhibition was determined from the absorbance values compared to the mean absorbance value obtained for untreated wells (100%).
(§3) Concentrations of lichen products inhibiting 50% of biofilms were determined for each tested sample by constructing a dose–response curve and selecting the closest tested concentration value above or equal to 50% inhibition. All anti-maturation and anti-biofilm tests were performed at least in triplicate in at least two separate experiments. The lichen compounds with MMIC50 or/and MBIC50 less than 100 μg/ml were considered as potentially useful.
(§4) Anti-maturation and anti-biofilm tests were performed with C. albicans ATCC® 28367™, as previously described, in 96-well microplates with evernic acid alone, cyclodextrin alone, and evernic acid included in cyclodextrin at over 50 to 1.5 µM final range of evernic acid (serial twofold dilution).
(Tetrazolium dyes change colour on reduction, which living cells bring about.)

The subject of assay [2] is Candida albicans preformed 24-h-old biofilm. The experiment in a line: Anti-biofilm test (XTT) on preformed 24-h-old biofilm. It counts as cell-based, Candida albicans ATCC 28367. The following applies: for IC50: Candida albicans. On the procedure:
as §1, §2, §3, §4

Assay [3] relates to C. albicans planktonic yeast. The experiment in a line: Minimal inhibitory concentration, broth microdilution (CLSI M27-A3 adapted). It counts as cell-based, Candida albicans ATCC 28367. On the procedure:
Stock solutions of lichen compounds were prepared in DMSO at 10 mg/ml and were used for all the experiments performed. Their antifungal minimum inhibitory concentrations (MICs) were determined by a broth microdilution method (CLSI reference M27-A3 micromethod adapted protocol) as previously described ([Millot et al., 2017]). Briefly, an inoculum of C. albicans ATCC® 28367™ (American Type Culture Collection) adjusted to 0.5 Mac Farland absorbance was diluted 1:1,000 in RPMI-MOPS. A volume of this yeast culture was added to an equivalent volume of compound solution at several concentrations (100 to 0.048 μg/ml final) in 96-well microtiter plates. Controls as untreated yeasts (negative control), yeasts treated with 2% DMSO and yeasts treated with fluconazole (positive control) were included. After 24 and 48 h incubation at 37°C without shaking, the MICs were determined. All tests were performed in duplicate in at least two separate experiments.
(In general: In broth dilution the organism is exposed to a series of concentrations in liquid medium.)

Assay [4] has as its system C. albicans (ATCC: 90028) biofilm. On the set-up: method as in Nithyanand et al., 2015b. The note with it: at 100 µg/ml, added before the adhesion step, ring test; ref Nithyanand et al., 2015b; cited from earlier work.
Another assay has as its system 48-h C. albicans biofilm. On the set-up: method as in Peralta et al., 2016. The following applies: 4 μg/ml, ref Peralta et al., 2016, cited from earlier work.
The test system of another assay is Candida krusei biofilm. Further details: method as in Kvasnickova et al., 2015. The following applies: at 300 μg/ml, 24-h biofilm; ref Kvasnickova et al., 2015; cited from earlier work.
The subject of assay [5] is Candida parapsilosis biofilm. Further details: method as in Kvasnickova et al., 2015. The note with it: at 300 μg/ml, 24-h biofilm; ref Kvasnickova et al., 2015; cited from earlier work.
In assay [6] the test system is 24-h Candida orthopsilosis biofilms. On the set-up: method as in Pires et al., 2012. The note with it: 24-h biofilm, vs untreated controls; ref Pires et al., 2012; cited from earlier work.
For assay [7], the system named is 24-h C. parapsilosis biofilms. Further details: method as in Pires et al., 2012. The following applies: 24-h biofilm, vs untreated controls; ref Pires et al., 2012; cited from earlier work.
A further assay has as its system C. albicans. On the set-up: method as in Nithyanand et al., 2015b. The note with it: at 100 µg/ml; ref Nithyanand et al., 2015b; cited from earlier work.

Where two headings read alike, the source gives them in different places. Where only a bound is given, the exact number is not on record here.

We go through one compound from paper PMC8481799, “Lichen Polyphenolic Compounds for the Eradication of Candida albicans Biofilms” (Frontiers in Cellular and Infection Microbiology, 2021).

Take `CC(=O)C1=C(O)C=C2Oc3c(C(C)=O)c(O)c(C)c(O)c3C2(C)C1=O` (stereo in doubt) [Compound 11, (+)-usnic acid]: the IC50 in [1] (24 h) is over 200 µg/mL; in [1] (48 h), over 200 µg/mL; in [2] (24 h, read-out: Anti-biofilm activity MBIC50), over 200 µg/mL; in assay [2] (48 h, read-out: Anti-biofilm activity MBIC50), over 200 µg/mL; in assay [2] (read-out: MBIC50) it was at least 100 µg/mL. Moreover, in assay [1] (at 200 µg/ml), the Anti-maturation activity result is “not active”. Moreover, in assay [2] (24-h-old biofilm, in words), the Anti-biofilm activity result is recorded as “no anti-biofilm activity”. This compound gave a minimum inhibitory concentration (MIC) in [3] of over 100 µg/mL. For the same compound, the Biofilm inhibition in assay [4] is 65%. Besides, in the assay with 48-h C. albicans biofilm (control 18.39), the Biofilm biomass is recorded as 4.91 μm^3/μm^2. The “Inhibition of biofilm biomass” value in the assay on 48-h C. albicans biofilm was 73.3%. The “Reduction of biofilm thickness” value with 48-h C. albicans biofilm was 76.8%. The Anti-biofilm properties entry (in the assay with Candida krusei biofilm; in assay [5]) was “no anti-biofilm properties” each time. Moreover, the “Concentration inducing 80% inhibition of cell growth” value in [6] is 31.2 µg/mL; in [7], 62.5 µg/mL. Further, the Antifungal activity result in the assay on C. albicans is “no antifungal activity”.

One may read the MIC as the least concentration at which growth counts as inhibited. Read a low MIC as inhibition by little substance.
